Test results published in the CheMixHub ionic liquid set.

Assay: xn = mol fraction of the nth substance listed
Details: 101 kPa

CCCC[n+]1ccn(C)c1.F[B-](F)(F)F + CC(C)O
viscosity [mPa·s]
Details | 293.15 K | 298.15 K | 303.15 K | 308.15 K | 313.15 K | 318.15 K | 323.15 K
x1 = 0.0804 | 4.9 | 4.2 | 3.89 | 3.46 | 2.84 | 2.16 | 1.48
x1 = 0.1585 | 7.6 | 7 | 6.52 | 5.78 | 4.67 | 3.41 | 2.15
x1 = 0.2402 | 11.4 | 10.3 | 9.5 | 8.4 | 6.8 | 4.9 | 3.01
x1 = 0.3505 | 16 | 15 | 14 | 12.4 | 9.9 | 7.1 | 4.34
x1 = 0.4422 | 20.7 | 19.7 | 18.2 | 16 | 12.9 | 9.3 | 5.78
x1 = 0.5619 | 28.4 | 26.7 | 24.9 | 21.9 | 17.6 | 12.9 | 8.3
x1 = 0.6491 | 36.8 | 34.3 | 31.3 | 27.6 | 22.2 | 16.5 | 10.8
x1 = 0.7409 | 48.5 | 44.8 | 40 | 34.6 | 27.9 | 20.9 | 14.1
x1 = 0.8458 | 69 | 61.6 | 53.7 | 45.8 | 36.8 | 27.8 | 19.3
x1 = 0.9327 | 95 | 82 | 70 | 58.8 | 47.1 | 35.9 | 25.4
x1 = 1 | 125 | 105 | 88 | 72 | 57.7 | 44 | 31.6
